# Experiments:
# [1] = Half life in human plasma at 1 g, iv; format: ADME, organism-based
# Yersinia pestis = assay: Antibacterial activity against Yersinia pestis delta CO92 by broth macrodilution method; format: functional
# Homo sapiens [2] = assay: Free Cmin in human at 1 g, iv; format: ADME, organism-based; settings: in vivo
# Homo sapiens [3] = assay: Free Cmax in human at 1 g, iv; format: ADME, organism-based; settings: in vivo
# Homo sapiens [4] = assay: Free AUC (0 to 24 hrs) in human plasma at 500 mg, po; format: ADME, organism-based; settings: in vivo
# [5] = Half life in human plasma at 500 mg, po; format: ADME, organism-based
# Homo sapiens [6] = assay: Free Cmax in human at 500 mg, po; format: ADME, organism-based; settings: in vivo
Compound,half-life [1],MBC (Yersinia pestis),MIC (Yersinia pestis),fCmin (Homo sapiens [2]),fCmax (Homo sapiens [3]),fAUC (Homo sapiens [4]),half-life [5],fCmax (Homo sapiens [6])
[H]/N=C(/N)N[C@H]1[C@H](O)[C@@H](O)[C@H](O[C@@H]2O[C@@H](C)[C@](O)(C=O)[C@H]2O[C@@H]2O[C@@H](CO)[C@H](O)[C@@H](O)[C@@H]2NC)[C@@H](N/C(N)=N\[H])[C@@H]1O [STREPTOMYCIN],2.5 h,2 µg/mL,2 µg/mL,2 mg/L,38 mg/L,,,
C[C@H]1COc2c(N3CCN(C)CC3)c(F)cc3c(=O)c(C(=O)O)cn1c23.C[C@H]1COc2c(N3CCN(C)CC3)c(F)cc3c(=O)c(C(=O)O)cn1c23.O [LEVOFLOXACIN],,0.125 µg/mL,0.06 µg/mL,,,36000 ng·h/mL,7 h,3.6 mg/L

# — ChEMBL document CHEMBL1155150 (Antimicrob Agents Chemother, 2007)
